Source: article PMC8602723, “Comparative assessment of antimicrobial, antiradical and cytotoxic activities of cannabidiol and its propyl analogue cannabidivarin” (Scientific Reports, 2021)
Where two headings read alike, the source gives them in different places.

Columns and labels:
TelCOFS02MA cells [1] = assay: LDH assay (plasma membrane damage); type: cell-based, human; settings: for IC50: Homo sapiens, read-out: IC50 LDH assay
Method: (§1) LDH assay is a high-throughput method based on the release of the LDH cytoplasmic enzyme from the cytosol into the extracellular space when the plasma membrane is damaged[29],[30]. Plasma membrane damage related to the amount of lysed cells was monitored by LDH assay, and the results were used for indirectly detecting the necrosis correlated to the leakage of the cytosolic enzyme due the loss of membrane permeability control[29],[30]. This assay was performed with the protocol described by Lehmann and colleagues.
(§2) Briefly, 1 × 10^4 A549 and Caco-2 cells and 2 × 10^4 HepG2, MDA-MB-231 and TelCOFS02MA cells were seeded in 100 µL of 1% FBS-fresh medium in each well of 96-well plates and incubated for 24 h at 37 °C with 95% humidity and 5% CO2. Then, the medium was removed and replaced with 100 µL of medium with different concentrations of CBD and CBDV, which were chosen on the basis of range-finding tests (as previously indicated). The plates were incubated at 37 °C for 72 h. In all experiments, the background control (wells with medium and without cells to obtain information about the LDH activity in the assay medium), low control (wells containing cells exposed only to the medium to determine spontaneous LDH release), high control (wells containing cells exposed to 2% Triton-X100 for 10 min before performing the assay to determine maximum LDH release), and solvent controls (2.5% methanol) were included. One hundred microlitres of supernatant was removed carefully from each well and transferred into corresponding wells in optically clear 96-well flat bottom microplates. One hundred microlitres of freshly prepared reaction mixture (Diaphorase (Catalyst)/NAD^+ /INT/sodium lactate) was added to each well and incubated for 30 min at 20 °C in darkness. Thus, NAD^+ was reduced to NADH/H^+ by the LDH-catalysed conversion of lactate to pyruvate. Then, the catalyst transferred H/H^+ from NADH/H^+ to the tetrazolium salt INT, which was reduced to formazan. To arrest the reaction, 50 µL/well of 1 N HCl was added. The spectrophotometric absorbance was determined at 492 nm. The absorbance of the background control wells was subtracted from all other values.
(§3) The results are reported as percentages of cytotoxicity, which is linked to the percentage of LDH released from damaged plasma membranes, calculated as follows:3 IC%=OD492sample-OD492lowcontrol/OD492highcontrol-OD492lowcontrol·100
(§4) IC50 values (concentrations of the sample to obtain 50% cytotoxicity) were calculated.
All results from five independent experiments are expressed as the IC50 or EC50 as determined by analysis with Prism 5 software (GraphPad Inc., San Diego, CA, USA) and nonlinear regression (log agonist vs. normalized response-variable slope) with a 95% confidence range. […]

[2] = DPPH assay (radical scavenging); settings: for DPPH scavenging capacity less than the capacity of Trolox: compared with Trolox
Method: DPPH assay was performed following the protocol described by Brand-Williams et al.[69]. DPPH^⋅ was dissolved in methanol, generating a purple solution (101.43 µM). […] Furthermore, 940 μL of methanol and 60 μL of distilled water were used for the blank. Trolox was used as the standard control, and methanol was used as the solvent control.
The results were expressed as the median effective concentration of sample able to reduce the initial absorbance of the DPPH radical (EC50). Furthermore, TEAC values were calculated in line with Shimamura end colleagues[68] as previously reported.
(§5) All results from five independent experiments are expressed as the IC50 or EC50 as determined by analysis with Prism 5 software (GraphPad Inc., San Diego, CA, USA) and nonlinear regression (log agonist vs. normalized response-variable slope) with a 95% confidence range. Lowest observed adverse effect concentrations (LOAECs) were calculated by one-way ANOVA and Dunnett’s comparison test. Differences compared to the controls were considered significant as follows: *p < 0.05, **p < 0.001 and ***p < 0.0001.

A549 cells = assay: LDH assay (plasma membrane damage); type: cell-based; settings: Homo sapiens, read-out: IC50 LDH assay
Method: as §1, §2, §3, §4, §5

MDA-MB-231 cells = assay: LDH assay (plasma membrane damage); type: cell-based; settings: Homo sapiens, read-out: IC50 LDH assay
Method: as §1, §2, §3, §4, §5

Hep G2 cells [3] = assay: LDH assay (plasma membrane damage); type: cell-based; settings: Homo sapiens, read-out: IC50 LDH assay
Method: as §1, §2, §3, §4, §5

Caco-2 cells [4] = assay: LDH assay (plasma membrane damage); type: cell-based; settings: Homo sapiens, read-out: IC50 LDH assay
Method: as §1, §2, §3, §4, §5

TelCOFS02MA cells [5] = assay: BrdU-ELISA (DNA synthesis inhibition); type: cell-based, human; settings: for IC50: Homo sapiens, read-out: IC50 BrdU-ELISA
Method: (§6) BrdU-ELISA was performed according to the protocol described by Lehmann and collaborators, and the results were used to evaluate the inhibition of DNA synthesis. A total of 1 × 10^4 cells/well were seeded in 100 µL of fresh medium into 96-well plates in triplicate at 37 °C in a humidified atmosphere of 95% air plus 5% CO2 for 24 h. Then, the medium was removed and replaced with 200 µL of medium with the same concentrations of CBD and CBDV that had been used in the previous test. In all experiments, blanks (wells with medium and without cells), negative controls (with only medium) and solvent controls (2.5% methanol) were included. The plates were incubated at 37 °C for 72 h. Then, 20 µL of 100 µM BrdU labelling solution was added to each well and incubated for 2 h at 37 °C. After removing the labelling solution, 200 µl of DNA fixing/denaturing solution was added to each well and incubated for 30 min at room temperature. After its discharge, 100 µL of the anti-BrdU-POD antibody solution [0.075 U/mL] was added to each well and incubated for 90 min at room temperature. After several washing steps with 1X PBS (200–300 µL/well), 100 µl of tetramethylbenzidine (TMB) was added to each well and incubated for 20–30 min (sufficient time for the colour change). The incorporation of BrdU into DNA was quantified spectrophotometrically at 370 nm. […] The mean absorbance of the control cells represented 100% cell proliferation, and the mean absorbance of the treated cells was related to the control values to determine cell sensitivity. Inhibition (%) of DNA synthesis/cell viability was determined as follows:2 IC%=1-OD370sample/OD370negativecontrol·100
(§7) IC50 values (representing the median concentration at which DNA synthesis and cell viability were reduced by 50%) were calculated.
as §5

Hep G2 cells [6] = assay: BrdU-ELISA (DNA synthesis inhibition); type: cell-based, human; settings: for IC50: Homo sapiens, read-out: IC50 BrdU-ELISA
Method: as §6, §7, §5

Caco-2 cells [7] = assay: BrdU-ELISA (DNA synthesis inhibition); type: cell-based, human; settings: for IC50: Homo sapiens, read-out: IC50 BrdU-ELISA
Method: as §6, §7, §5

[8] = TelCOFS02MA, 72 h exposure, 95% confidence interval in brackets
[9] = HepG2, Hep G2, 72 h exposure, 95% confidence interval in brackets
[10] = Caco-2, 72 h exposure, 95% confidence interval in brackets

C=C(C)[C@@H]1CCC(C)=C[C@H]1c1c(O)cc(CCCCC)cc1O [CBD, Cannabidiol]
IC50 (TelCOFS02MA cells [1]; [8]): 118 µM | LOAEC LDH assay (TelCOFS02MA cells [1]; TelCOFS02MA, 72 h): 80 µM | DPPH scavenging capacity less than the capacity of Trolox [2]: 90% | IC50 (A549 cells; A549, 72 h exposure, 95% confidence interval in brackets): 24 µM | IC50 (MDA-MB-231 cells; MDA-MB-231, 72 h exposure, 95% confidence interval in brackets): 22.1 µM | IC50 (Hep G2 cells [3]; [9]): 18.1 µM | IC50 (Caco-2 cells [4]; [10]): 22.8 µM | IC50 (TelCOFS02MA cells [5]; [8]): 49.1 µM | IC50 (Hep G2 cells [6]; [9]): 39.2 µM | IC50 (Caco-2 cells [7]; [10]): 33.3 µM

C=C(C)[C@@H]1CCC(C)=C[C@H]1c1c(O)cc(CCC)cc1O [CBDV, cannabidivarin]
IC50 (TelCOFS02MA cells [1]; 72 h): 152 µM | LOAEC LDH assay (TelCOFS02MA cells [1]; TelCOFS02MA, 72 h): 88 µM | TEAC (Trolox equivalent antioxidant capacity), DPPH ([2]; EC50 Trolox/EC50 sample): 0.09 | DPPH scavenging capacity less than the capacity of Trolox [2]: 91% | IC50 (A549 cells; A549, 72 h): 26.3 µM | IC50 (MDA-MB-231 cells; MDA-MB-231, 72 h): 33.8 µM | IC50 (Hep G2 cells [3]; HepG2, 72 h): 21.2 µM | IC50 (Caco-2 cells [4]; Caco-2, 72 h): 29.1 µM | IC50 (TelCOFS02MA cells [5]; 72 h): 69.1 µM | LOAEC BrdU-ELISA (TelCOFS02MA cells [5]; TelCOFS02MA, 72 h): 44 µM | LOAEC BrdU-ELISA (Hep G2 cells [6]; Hep G2, 72 h): 22 µM | IC50 (Hep G2 cells [6]; HepG2, 72 h): 46.7 µM | LOAEC BrdU-ELISA (Caco-2 cells [7]; Caco-2, 72 h): 22 µM | IC50 (Caco-2 cells [7]; Caco-2, 72 h): 40.4 µM
